13 compounds from ChEMBL document CHEMBL1221315, “Antiviral agents 2. Synthesis of trimeric naphthoquinone analogues of conocurvone and their antiviral evaluation against HIV” (Bioorg Med Chem, 2010) can be followed below.

The target of data set [1] is T1, Human immunodeficiency virus type 1 integrase (Human immunodeficiency virus 1, UniProt Q7ZJM1). As to the kind of experiment: Inhibition of HIV1 integrase 3' processing activity.
For data set [2], the system named is Human immunodeficiency virus 1. As to the kind of experiment: Antiviral activity against HIV1 Rf infected in CEM cells assessed as inhibition of viral replication after 5 days. The following applies: Human immunodeficiency virus 1, Rf, CCRF-CEM, 120 h. It is filed as functional, organism-based.
Another data set deals with CCRF-CEM. In words: Cytotoxicity against human CEM cells. It is filed as functional.
In data set [3] the target is T1, Human immunodeficiency virus type 1 integrase. In words: Inhibition of HIV1 integrase 3' strand transfer activity.
For another data set, the system named is Rattus norvegicus. In words: Volume of distribution at steady state in rat at 5 mg/kg, po and 2 mg/kg, iv. The following applies: in vivo.
Data set [4] is described as follows: Half life in rat at 2 mg/kg, iv. The settings on record: in vivo.
The nature of data set [5]: Cmax in rat at 5 mg/kg, po. The settings on record: in vivo. It is filed as ADME, organism-based. On the set-up: dose 5 mg/kg, route oral.
Data set [6] is described as follows: Tmax in rat at 5 mg/kg, po and 2 mg/kg, iv. The settings on record: in vivo.
Data set [7] can be described thus: Half life in rat at 5 mg/kg, po. In kind it is ADME, organism-based. On the set-up: dose 5 mg/kg, route oral. The following applies: in vivo.
Data set [8] can be described thus: Oral bioavailability in rat at 5 mg/kg. The following applies: in vivo. It is filed as ADME, organism-based.
Data set [9] is described as follows: Cmax in rat at 2 mg/kg, iv. The following applies: in vivo.
The nature of data set [10]: Plasma clearance in rat at 5 mg/kg, po and 2 mg/kg, iv.

SMILES strings stand for the structures.

T1 sequence (Q7ZJM1 whole entry): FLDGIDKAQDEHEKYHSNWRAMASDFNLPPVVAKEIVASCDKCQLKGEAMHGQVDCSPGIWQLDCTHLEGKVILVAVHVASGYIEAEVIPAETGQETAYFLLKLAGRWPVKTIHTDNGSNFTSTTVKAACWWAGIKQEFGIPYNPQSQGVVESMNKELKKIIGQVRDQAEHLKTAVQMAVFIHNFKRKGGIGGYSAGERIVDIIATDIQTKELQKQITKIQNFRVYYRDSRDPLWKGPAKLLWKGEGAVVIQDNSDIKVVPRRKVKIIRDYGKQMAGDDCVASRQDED

Broadly, the IC50 is the concentration needed to halve the response being measured. A word on the EC50: it is the concentration that produces a half-maximal response. As a reminder, the CC50 is the concentration that lowers cell viability or growth by half. Read a high CC50 as better tolerance by the cells. As for `O=C1C(O)=C(C2=C(C3=C(O)C(=O)c4ccccc4C3=O)C(=O)c3ccccc3C2=O)C(=O)c2ccccc21`, the IC50 is 56 µM in data set [1] and 13 µM in data set [3]. Further, the 50% effective concentration (EC50) in data set [2] was determined as 16 µM. Besides, the cytotoxic concentration (CC50) in the data set with CCRF-CEM was determined as 48 µM.

Compound `CC1(C)CCc2c(ccc3c2C(=O)C(O)=C(C2=C(C4=C(O)C(=O)c5c(ccc6c5CCC(C)(C)O6)C4=O)C(=O)c4c(ccc5c4CCC(C)(C)O5)C2=O)C3=O)O1` registered an IC50 in data set [3] of 9 µM.

For the compound `COc1ccc2c(c1)C(=O)C(C1=C(O)C(=O)c3c(ccc4c3C=CC(C)(C)O4)C1=O)=C(C1=C(O)C(=O)c3c(ccc4c3C=CC(C)(C)O4)C1=O)C2=O`, the concentration for half-maximal inhibition (IC50) came out at 2.3 µM in data set [1] and 2.5 µM in data set [3]. In [2], the EC50 was 0.027 µM. The CC50 in the data set with CCRF-CEM was 10 µM.

`CC1(C)C=Cc2c(ccc3c2C(=O)C(O)=C(C2=C(C4=C(O)C(=O)c5c(ccc6c5C=CC(C)(C)O6)C4=O)C(=O)c4ccccc4C2=O)C3=O)O1`: the results for the IC50 in data set [1] and in data set [3] were 2.5 µM and 2 µM, respectively. Moreover, the EC50 in data set [2] came out at 0.029 µM. The compound further showed a CC50 in the data set with CCRF-CEM of 10 µM.

As for `COc1cc2c(cc1OC)C(=O)C(C1=C(C3=C(O)C(=O)c4cc(OC)c(OC)cc4C3=O)C(=O)c3ccccc3C1=O)=C(O)C2=O`, the IC50 came to 62 µM in [1] and 12 µM in [3]. The EC50 in data set [2] is over 20 µM.

Broadly, the half-life is how long it takes for the measured level to halve. Read a low half-life as fast loss. Broadly, the Cmax is the maximum level reached in the sampled fluid or tissue. As a reminder, the Tmax is the time at which the peak concentration occurs. The bioavailability is dose-corrected exposure relative to a reference, in per cent. A higher bioavailability goes with much systemic uptake. In turn, `CC1(C)C=Cc2c(ccc3c2C(=O)C(O)=C(C2=C(C4=C(O)C(=O)c5c(ccc6c5C=CC(C)(C)O6)C4=O)C(=O)c4c(ccc5c4CCC(C)(C)O5)C2=O)C3=O)O1` returned a Vdss in the data set on Rattus norvegicus of 27.7 mL. Further, the half-life was 45 h in data set [4] and 21.7 h in [7]. Besides, the Cmax in data set [5] worked out at 3200 ng/mL; in data set [9] it was 50200 ng/mL. Further, the IC50 was determined as 1.8 µM in data set [1] and 6 µM in data set [3]. Also, in data set [6], the Tmax stood at 7.5 h. For the same compound, the 50% effective concentration (EC50) in data set [2] was determined as 0.47 µM. In the data set on CCRF-CEM, the CC50 was over 20 µM. This compound also showed a bioavailability in [8] of 2.6%. The clearance in data set [10] is 0.00733 mL/min.

On to `CCCOc1ccc2c(c1)C(=O)C(C1=C(O)C(=O)c3c(ccc4c3C=CC(C)(C)O4)C1=O)=C(C1=C(O)C(=O)c3c(ccc4c3C=CC(C)(C)O4)C1=O)C2=O`, for which the IC50 in [1] stood at 2.8 µM; in [3] it was 5 µM. The EC50 in data set [2] was 0.009 µM. In addition, half-maximal cytotoxicity in the data set on CCRF-CEM (CC50) was put at 1 µM.

For the compound `COc1cc2c(cc1OC)C(=O)C(C1=C(C3=C(O)C(=O)c4cc(OC)c(OC)cc4C3=O)C(=O)c3cc(OC)c(OC)cc3C1=O)=C(O)C2=O`, the IC50 in [1] is over 150 µM; in [3], 10 µM.

Take `CC(C)Oc1ccc2c(c1)C(=O)C(C1=C(O)C(=O)c3c(ccc4c3C=CC(C)(C)O4)C1=O)=C(C1=C(O)C(=O)c3c(ccc4c3C=CC(C)(C)O4)C1=O)C2=O`: the IC50 is 3 µM in [1] and over 100 µM in data set [3]. The EC50 in data set [2] was found to be 0.24 µM. Also, the CC50 in the data set with CCRF-CEM was over 20 µM.

On to `COc1cccc2c1C(=O)C(C1=C(C3=C(O)C(=O)c4cccc(OC)c4C3=O)C(=O)c3ccccc3C1=O)=C(O)C2=O`, for which the EC50 in [2] was over 20 µM. In addition, in [3], the concentration for half-maximal inhibition (IC50) was found to be 13 µM.

As for `COc1ccc2c(c1)C(=O)C(O)=C(C1=C(C3=C(O)C(=O)c4cc(OC)ccc4C3=O)C(=O)c3ccccc3C1=O)C2=O`, the figures for the IC50 in data set [1] and in [3] were 22.5 µM and 10 µM, respectively. The EC50 in data set [2] is over 20 µM.

For `CC1(C)C=Cc2c(ccc3c2C(=O)C(O)=C(C2=C(C4=C(O)C(=O)c5c(ccc6c5C=CC(C)(C)O6)C4=O)C(=O)c4c(ccc5c4C=CC(C)(C)O5)C2=O)C3=O)O1`, the IC50 came out at 1.7 µM in data set [1] and 3 µM in [3]. In addition, the EC50 in data set [2] was 0.39 µM. In addition, in the data set on CCRF-CEM, the CC50 is over 20 µM.

With `CC1(C)C=Cc2c(ccc3c2C(=O)C(O)=C(C2=C(C4=C(O)C(=O)c5c(ccc6c5C=CC(C)(C)O6)C4=O)C(=O)N(Cc4ccccc4)C2=O)C3=O)O1`, the figures for the IC50 in data set [1] and in data set [3] were 4.5 µM and 4 µM, respectively. In addition, the EC50 in data set [2] is over 20 µM.
